Experimental data as given in the NIST ThermoML archive (doi:10.1016/j.fluid.2010.08.022).
Numbers after ± are expanded uncertainties.

Conditions: 101.33 kPa, Liquid crystal of unknown type; for mass density: Vibrating tube method; for speed of sound: Sing-around technique in a fixed-path interferometer

CCCCCCCC/C=C\CCCCCCCC(=O)O.NCCO [2-hydroxyethylammonium oleate]
Conditions	mass density [kg/m3]	speed of sound [m/s]
310.91 K	928.395 ± 1.7	–
311.16 K	928.237 ± 1.7	1466.6 ± 3.7
311.41 K	928.077 ± 1.7	1465.8 ± 3.7
311.66 K	927.918 ± 1.7	1465 ± 3.7
311.91 K	927.76 ± 1.7	1464.2 ± 3.7
312.16 K	927.599 ± 1.7	1463.4 ± 3.7
312.41 K	927.441 ± 1.7	1462.6 ± 3.7
312.66 K	927.283 ± 1.7	1461.8 ± 3.7
312.91 K	927.122 ± 1.7	1461 ± 3.7
313.16 K	926.962 ± 1.7	1460.2 ± 3.7
313.41 K	926.805 ± 1.7	1459.4 ± 3.7
313.66 K	926.647 ± 1.7	1458.6 ± 3.7
313.91 K	926.486 ± 1.6	1457.8 ± 3.7
314.16 K	926.328 ± 1.6	1457 ± 3.7
314.41 K	926.167 ± 1.6	1456.2 ± 3.7
314.66 K	926.009 ± 1.6	1455.4 ± 3.7
314.91 K	925.851 ± 1.6	1454.6 ± 3.7
315.16 K	925.69 ± 1.6	1453.8 ± 3.7
315.41 K	925.531 ± 1.6	1453 ± 3.7
315.66 K	925.372 ± 1.6	1452.2 ± 3.7
315.91 K	925.214 ± 1.6	1451.4 ± 3.7
316.16 K	925.054 ± 1.6	1450.6 ± 3.7
316.41 K	924.895 ± 1.6	1449.8 ± 3.7
316.66 K	924.735 ± 1.6	1449 ± 3.7
316.91 K	924.575 ± 1.6	1448.2 ± 3.7
317.16 K	924.416 ± 1.6	1447.4 ± 3.7
317.41 K	924.257 ± 1.6	1446.6 ± 3.7
317.66 K	924.098 ± 1.6	1445.8 ± 3.7
317.91 K	923.938 ± 1.6	1445 ± 3.7
318.16 K	923.779 ± 1.6	1444.2 ± 3.7
318.4 K	923.621 ± 1.6	1443.4 ± 3.7
318.66 K	923.461 ± 1.6	1442.6 ± 3.7
318.91 K	923.302 ± 1.6	1441.8 ± 3.7
319.16 K	923.142 ± 1.6	1441 ± 3.7
319.41 K	922.982 ± 1.6	1440.2 ± 3.7
319.65 K	922.821 ± 1.6	1439.4 ± 3.7
319.91 K	922.663 ± 1.6	1438.6 ± 3.7
320.16 K	922.502 ± 1.6	1437.8 ± 3.7
320.41 K	922.343 ± 1.6	1437 ± 3.7
320.66 K	922.184 ± 1.6	1436.2 ± 3.7
320.91 K	922.026 ± 1.6	1435.5 ± 3.7
321.16 K	921.864 ± 1.6	1434.7 ± 3.7
321.41 K	921.705 ± 1.6	1433.9 ± 3.7
321.66 K	921.546 ± 1.6	1433.1 ± 3.7
321.91 K	921.386 ± 1.6	1432.3 ± 3.7
322.15 K	921.225 ± 1.6	1431.5 ± 3.7
322.41 K	921.066 ± 1.6	1430.8 ± 3.7
322.66 K	920.906 ± 1.6	1430 ± 3.7
322.91 K	920.746 ± 1.6	1429.2 ± 3.7
323.16 K	920.588 ± 1.6	1428.4 ± 3.7
323.41 K	920.427 ± 1.6	1427.6 ± 3.7
323.66 K	920.268 ± 1.6	1426.8 ± 3.7
323.91 K	920.108 ± 1.6	1426 ± 3.7
324.16 K	919.948 ± 1.6	1425.3 ± 3.7
324.41 K	919.788 ± 1.6	1424.5 ± 3.7
324.66 K	919.629 ± 1.6	1423.7 ± 3.7
324.91 K	919.469 ± 1.6	1422.9 ± 3.7
325.16 K	919.309 ± 1.6	1422.1 ± 3.7
325.41 K	919.149 ± 1.6	1421.3 ± 3.7
325.66 K	918.989 ± 1.6	1420.5 ± 3.7
325.91 K	918.828 ± 1.6	1419.7 ± 3.7
326.16 K	918.669 ± 1.6	1419 ± 3.7
326.41 K	918.508 ± 1.6	1418.2 ± 3.7
326.66 K	918.347 ± 1.6	1417.4 ± 3.7
326.91 K	918.187 ± 1.6	1416.6 ± 3.7
327.16 K	918.029 ± 1.6	1415.8 ± 3.7
327.41 K	–	1415.1 ± 3.7
